Measured values published in patent US6224850A, “Antiwrinkle cosmetic/pharmaceutical compositions comprising iridaceae extracts” (Societe L'Oreal S.A., priority 1996, dated 2001).

Experiments:
[1] = tested on: convulsions induced by strychnine in mice; conditions: mouse, in vivo
[2] = target: GABA-A receptor; type: binding, rat; conditions: dose displacing 50% of tritiated muscimol; nonlabelled muscimol
[3] = target: Glycine receptor (Rattus norvegicus, UniProt P07727); experiment: biochemical; type: binding
Glycine receptor, sequence (P07727 29-457): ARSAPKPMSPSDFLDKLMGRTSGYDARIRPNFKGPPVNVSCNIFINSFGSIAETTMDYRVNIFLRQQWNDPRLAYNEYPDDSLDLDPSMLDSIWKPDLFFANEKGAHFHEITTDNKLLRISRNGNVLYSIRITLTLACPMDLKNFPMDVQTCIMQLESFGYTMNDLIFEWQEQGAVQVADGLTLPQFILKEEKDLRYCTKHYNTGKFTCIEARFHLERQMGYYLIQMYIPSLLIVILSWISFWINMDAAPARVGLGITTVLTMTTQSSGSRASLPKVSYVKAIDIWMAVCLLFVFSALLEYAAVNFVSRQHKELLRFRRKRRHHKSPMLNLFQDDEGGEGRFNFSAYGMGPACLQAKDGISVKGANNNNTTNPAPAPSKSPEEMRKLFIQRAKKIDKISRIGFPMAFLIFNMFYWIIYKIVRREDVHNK
Glycine receptor, sequence (P20781 23-496, further chain): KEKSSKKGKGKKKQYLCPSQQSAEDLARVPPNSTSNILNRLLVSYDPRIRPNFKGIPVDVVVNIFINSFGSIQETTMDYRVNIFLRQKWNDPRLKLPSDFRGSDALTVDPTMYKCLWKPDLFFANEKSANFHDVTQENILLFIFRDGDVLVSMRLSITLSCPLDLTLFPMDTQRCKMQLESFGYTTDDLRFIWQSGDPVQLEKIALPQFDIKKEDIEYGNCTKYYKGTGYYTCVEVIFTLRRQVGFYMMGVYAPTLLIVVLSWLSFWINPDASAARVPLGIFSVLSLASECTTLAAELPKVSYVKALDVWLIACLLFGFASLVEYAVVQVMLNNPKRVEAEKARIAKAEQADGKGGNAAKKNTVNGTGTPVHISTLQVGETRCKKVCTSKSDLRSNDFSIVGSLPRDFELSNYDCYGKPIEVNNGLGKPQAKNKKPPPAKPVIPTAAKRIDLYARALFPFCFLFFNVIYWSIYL

With `CN1C(=O)CN=C(c2ccccc2)c2cc(Cl)ccc21` [Diazepam] the “Delay in the appearance of the convulsions” value [1] was 3431 and the “Variation (%) of delay” value [1] was “+1190”.
Compound `NCc1cc(=O)[nH]o1` [muscimol] has an IC50 [2] of 8.2 nM.
Compound `O=C1C[C@@H]2OCC=C3CN4CC[C@]56c7ccccc7N1[C@H]5[C@H]2[C@H]3C[C@H]46` [strychnine] has an IC50 [3] of 26.9 nM.
